Data from ChEMBL document CHEMBL4043096, “Synthesis of 6-hydroxyaurone analogues and evaluation of their α-glucosidase inhibitory and glucose consumption-promoting activity: Development of highly active 5,6-disubstituted derivatives” (Bioorg Med Chem Lett, 2017).
The source made the active and inactive calls. No cut-off for these calls is given here.

Legend:
[1] = Inhibition of baker's yeast alpha-glucosidase incubated for 30 mins using p-nitrophenyl-alpha-D-glucopyranoside substrate by spectrophotometry; set-up: species or system Saccharomyces cerevisiae
Saccharomyces cerevisiae [2] = test: Mixed competitive inhibition of baker's yeast alpha-glucosidase incubated for 30 mins using p-nitrophenyl-alpha-D-glucopyranoside substrate by spectrophotometry based Lineweaver-Burk plot analysis
Saccharomyces cerevisiae [3] = test: Irreversible inhibition of baker's yeast alpha-glucosidase incubated for 30 mins using p-nitrophenyl-alpha-D-glucopyranoside substrate by spectrophotometry based Lineweaver-Burk plot analysis
Saccharomyces cerevisiae [4] = test: Irreversible inhibition of baker's yeast alpha-glucosidase at […] dialyzed for 24 hrs followed by compound re-treatment for 30 mins using p-nitrophenyl-alpha-D-glucopyranoside substrate
HepG2 [5] = test: Induction of glucose consumption in human HepG2 cells at 1 uM incubated for 24 hrs; type: functional, cell-based
HepG2 [6] = test: Induction of glucose consumption in human HepG2 cells at 1 mM incubated for 24 hrs; type: functional, cell-based

Compound | IC50 [1] [µM] | other results
CCOC(=O)/C=C1\Oc2cc(O)c(-c3ccc(C(F)(F)F)cc3)cc2C1=O | 14.3 | 
O=C1/C(=C/c2cccc(O)c2)Oc2cc(O)ccc21 | > 100 | 
COc1ccc(COc2cc3c(cc2-c2ccc(F)cc2)C(=O)CO3)cc1 | 24.9 | 
O=C1/C(=C/c2ccc(O)cc2)Oc2cc(O)ccc21 | 76.7 | 
C[C@H]1O[C@H](O[C@H]2[C@H](O)[C@@H](O)[C@@H](O[C@H]3[C@H](O)[C@@H](O)C(O)O[C@@H]3CO)O[C@@H]2CO)[C@H](O)[C@@H](O)[C@@H]1N[C@H]1C=C(CO)[C@@H](O)[C@H](O)[C@H]1O (stereo partly specified) [ACARBOSE] | 50.3 | 
COc1cc2c(cc1-c1ccc(F)cc1)C(=O)CO2 | 9.88 | inhibition (Saccharomyces cerevisiae [2]): Active; inhibition (Saccharomyces cerevisiae [3]): Active; inhibition (Saccharomyces cerevisiae [4]): Active; Activity (HepG2 [5]): Active
O=C1/C(=C/c2ccc(O)c(O)c2)Oc2cc(O)ccc21 [SULFURETIN] | 67.6 | 
CCOC(=O)/C=C1\Oc2cc(O)c(-c3ccc(F)cc3)cc2C1=O | 11.1 | 
COc1cc2c(cc1-c1ccc(F)cc1)C(=O)/C(=C/c1ccccc1)O2 | > 100 | 
CN(C)C(=N)NC(=N)N |  | Activity (HepG2 [6]): Active
O=C1/C(=C/c2ccccc2O)Oc2cc(O)ccc21 | 93 | 
COc1cc2c(cc1-c1ccccc1)C(=O)CO2 | 20.1 | 
COc1cc2c(cc1-c1ccc(C(F)(F)F)cc1)C(=O)CO2 | 21.2 | 

Now from value to compound, other results behind:

IC50 [1] [µM] | Compound | other results
> 100 | COc1ccc(COc2ccc3c(c2)OCC3=O)cc1 | 
10.9 | COc1ccc(COc2cc3c(cc2-c2ccc(C(F)(F)F)cc2)C(=O)CO3)cc1 | 
> 100 | COc1cc2c(cc1-c1ccccc1)C(=O)/C(=C/c1ccccc1)O2 | 
26.6 | CCOC(=O)/C=C1\Oc2cc(OC)c(-c3ccc(F)cc3)cc2C1=O | 
63.4 | O=C1c2ccc(O)cc2OC1Cc1ccc(O)c(O)c1 (stereo unspecified) | 
> 100 | O=C1/C(=C/c2ccccc2)Oc2cc(O)ccc21 | 
79.2 | O=C1/C(=C/c2ccc(O)cc2O)Oc2cc(O)ccc21 | 
19.8 | COc1ccc(COc2ccc3c(c2)O/C(=C\c2ccccc2)C3=O)cc1 | 
> 100 | COc1ccc(/C=C2\Oc3cc(O)ccc3C2=O)cc1OC | 
10.6 | COc1ccc(COc2cc3c(cc2-c2ccccc2)C(=O)CO3)cc1 | Activity (HepG2 [5]): inactive
33.4 | CCOC(=O)/C=C1\Oc2cc(OCc3ccc(OC)cc3)ccc2C1=O | 
30.9 | O=C1/C(=C/c2ccccc2)Oc2cc(O)c(-c3ccc(C(F)(F)F)cc3)cc21 | Activity (HepG2 [5]): Active
